Data on six compounds can be found in PubChem BioAssay (NCI).

“And” between values parts separate entries of the source, which are not always exact repeats. Equal entries are not always repeated.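 1) Cells in 96-well plates. 2) Compound, 48 h, 5 concentrations. 3) Linear interpolation between surrounding doses. 4) Unreached endpoint = highest concentration. The concentration for 50% growth inhibition is given as GI50. Definition used: TGI = concentration required for complete inhibition of growth.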 Where only a bound is given, the exact number is not on record here.

Test systems include SR leukemia; SNB-75 CNS; SK-MEL-28 melanoma; LOX IMVI melanoma; NCI-H23 lung; OVCAR-4 ovarian; SF-268 CNS; NCI-H522 lung; MALME-3M melanoma; IGROV1 ovarian.
Common to all, as to assay: NCI anticancer screen, dose series, 48 h

As for `O=c1[nH]cnc2[nH]ncc12`, the GI50 was 480 µM in the assay with SR leukemia; 1180 µM in the assay with SNB-75 CNS; 2000 µM in the assay with SK-MEL-28 melanoma; 142 µM in the assay with LOX IMVI melanoma; 227 µM with NCI-H23 lung; 160 µM in the assay on OVCAR-4 ovarian. In addition, the GI50 in the assay with SF-268 CNS is over 5000 µM; with NCI-H522 lung, > 84.4 µM and 272 µM; with MALME-3M melanoma it was 1330 µM; with IGROV1 ovarian it was 54.6 µM and 422 µM. The TGI in the assay on SR leukemia is over 2670 µM; in the assay on SNB-75 CNS, over 4110 µM; in the assay on SK-MEL-28 melanoma it was over 5000 µM; in the assay with LOX IMVI melanoma, over 5000 µM; with NCI-H23 lung, over 1870 µM; in the assay with OVCAR-4 ovarian it was over 3050 µM. Moreover, the TGI with SF-268 CNS, in the assay with NCI-H522 lung, with MALME-3M melanoma and with IGROV1 ovarian was over 5000 µM throughout.
On to `O=C(Nc1ccccc1O)c1ccc(Oc2cccc(C(=O)Nc3ccccc3O)c2)cc1`, for which the GI50 was 0.56 µM with SR leukemia; 1.67 µM in the assay on SNB-75 CNS; 1.84 µM in the assay on SK-MEL-28 melanoma; 2.24 µM with LOX IMVI melanoma; 2.99 µM with NCI-H23 lung; 2.42 µM in the assay with OVCAR-4 ovarian. In addition, the GI50 in the assay on SF-268 CNS was 2.91 µM; with NCI-H522 lung, 1.07 µM; in the assay on MALME-3M melanoma, 1.48 µM; with IGROV1 ovarian it was 5.25 µM. The TGI in the assay with SR leukemia was 11.4 µM; in the assay with SNB-75 CNS, 7.73 µM; in the assay with SK-MEL-28 melanoma it was 12.2 µM; with LOX IMVI melanoma, 12.2 µM; in the assay with NCI-H23 lung it was 11.3 µM; in the assay on OVCAR-4 ovarian, 9.03 µM. Moreover, the TGI in the assay with SF-268 CNS was found to be 15 µM; in the assay with NCI-H522 lung, 4.73 µM; with MALME-3M melanoma it was 14 µM; in the assay with IGROV1 ovarian it was 27.3 µM.
Turning to `O=C(N/N=C/c1ccccc1O)C(=O)Nc1ccc(F)cc1`, the GI50 with SR leukemia is 2.52 µM; in the assay on SNB-75 CNS, 14.2 µM; with SK-MEL-28 melanoma it was 8.04 µM; in the assay on LOX IMVI melanoma, 4.28 µM; with NCI-H23 lung, 7.31 µM; in the assay with OVCAR-4 ovarian, 2.53 µM. For the same compound, the GI50 in the assay with SF-268 CNS was 2.77 µM; in the assay on NCI-H522 lung, 3.01 µM; in the assay on MALME-3M melanoma it was 10.7 µM; in the assay with IGROV1 ovarian it was 4.29 µM. The TGI in the assay with SR leukemia is over 100 µM; in the assay on SNB-75 CNS it was 69.4 µM; in the assay on SK-MEL-28 melanoma, over 100 µM; in the assay with LOX IMVI melanoma, over 100 µM; in the assay on NCI-H23 lung it was over 100 µM; in the assay with OVCAR-4 ovarian, over 100 µM. Further, the TGI was over 100 µM in the assay with SF-268 CNS, 52 µM in the assay on NCI-H522 lung, 82.7 µM with MALME-3M melanoma and over 100 µM in the assay on IGROV1 ovarian.
As for `O=C(O)c1cc(N=Cc2ccccc2O)cc(C(=O)O)c1`, the TGI in the assay on SR leukemia, in the assay with SNB-75 CNS, with SK-MEL-28 melanoma, in the assay on LOX IMVI melanoma, with NCI-H23 lung and in the assay on OVCAR-4 ovarian was over 100 µM throughout. In addition, the TGI in the assay on SF-268 CNS, in the assay on NCI-H522 lung, with MALME-3M melanoma and in the assay with IGROV1 ovarian was over 100 µM throughout.
With `Fc1ccc(C2SCc3nc4ccccc4n32)cc1` (stereo not given), the TGI is 96.6 µM in the assay on SR leukemia; 9.55 µM with SNB-75 CNS; 76.5 µM with SK-MEL-28 melanoma; over 100 µM in the assay with LOX IMVI melanoma; over 100 µM in the assay on NCI-H23 lung; over 100 µM in the assay on OVCAR-4 ovarian. The TGI in the assay on SF-268 CNS is over 100 µM; in the assay with NCI-H522 lung it was 70.9 µM; with MALME-3M melanoma it was 73.1 µM; in the assay on IGROV1 ovarian it was over 100 µM.
Turning to `NS(=O)(=O)c1cccc(N=Cc2c(O)[nH]c3ccccc23)c1`, the GI50 in the assay with SR leukemia, with SNB-75 CNS, in the assay on SK-MEL-28 melanoma, in the assay with LOX IMVI melanoma, in the assay on NCI-H23 lung and with OVCAR-4 ovarian was over 25 µM each time. Moreover, the GI50 in the assay with SF-268 CNS was over 25 µM; in the assay on NCI-H522 lung it was 24.4 µM; in the assay with MALME-3M melanoma it was over 25 µM; in the assay with IGROV1 ovarian, over 20.2 µM. Further, the TGI in the assay with SR leukemia, in the assay with SNB-75 CNS, in the assay on SK-MEL-28 melanoma, with LOX IMVI melanoma, in the assay on NCI-H23 lung and in the assay on OVCAR-4 ovarian was over 25 µM each time. In addition, the TGI in the assay with SF-268 CNS, in the assay with NCI-H522 lung, in the assay with MALME-3M melanoma and with IGROV1 ovarian was over 25 µM each time.
